The target of this assay is Gag-Pol polyprotein (Human immunodeficiency virus type 1 group M subtype B (isolate HXB2), UniProt P04585). The assay can be described thus: concentration-response of HIV-1 RNase H blockers – biochemical, probe assessment, dose response (AID 652). As to conditions: pH 8; 23 °C.
In general, IC50 refers to the concentration at which inhibition is half-maximal. The compound `c1csc(-c2nn3c(C4COc5ccccc5O4)nnc3s2)c1` (centres undefined) [3-(2,3-dihydro-1,4-benzodioxin-2-yl)-6-(2-thienyl)[1,2,4]triazolo[3,4-b][1,3,4]thiadiazole] came in with a half-inhibitory concentration (IC50) of 1.21 µM.

Turning to `CC1(C)Cc2[nH]c(=S)c(C#N)cc2CO1` [7,7-dimethyl-2-sulfanylidene-5,8-dihydro-1H-pyrano[4,3-b]pyridine-3-carbonitrile], half-maximal inhibition (IC50) required 4.03 µM.

In turn, `c1cncc(-c2nn3c(Cn4cnc5ccccc54)nnc3s2)c1` [1-{[6-(3-pyridinyl)[1,2,4]triazolo[3,4-b][1,3,4]thiadiazol-3-yl]methyl}-1H-benzimidazole] had an IC50 of 0.621 µM.

On to `c1ccc2c(c1)ncn2Cc1nnc2sc(-c3ccc4c(c3)OCO4)nn12` [3-(1-benzimidazolylmethyl)-6-(1,3-benzodioxol-5-yl)-[1,2,4]triazolo[3,4-b][1,3,4]thiadiazole], for which the IC50 worked out at 1.23 µM.

In turn, `N#Cc1c(NC(=O)c2ccc(Cn3cc(Br)cn3)o2)sc2c1CCCCCC2` [5-[(4-bromanylpyrazol-1-yl)methyl]-N-(3-cyano-4,5,6,7,8,9-hexahydrocycloocta[b]thiophen-2-yl)furan-2-carboxamide] displayed an IC50 of 1.38 µM.

`COc1ccc(Br)cc1C1CC(=O)N2CN(C)CSC2=C1C#N` (centres undefined) [8-(5-bromanyl-2-methoxy-phenyl)-3-methyl-6-oxidanylidene-2,4,7,8-tetrahydropyrido[2,1-b][1,3,5]thiadiazine-9-carbonitrile] displayed an IC50 of 7.18 µM.

`O=c1ccc2cc3c([nH]c4ccc(Br)cc43)oc-2c1O` [9-bromo-4-hydroxy-6H-[1]benzopyrano[2,3-b]indol-3-one] came in with an IC50 of 1.49 µM.

For the compound `COc1ccc(OC)c(S(=O)(=O)Nc2ccc(O)c(Sc3nc[nH]n3)c2)c1` [N-[4-hydroxy-3-(1H-1,2,4-triazol-3-ylthio)phenyl]-2,5-dimethoxybenzenesulfonamide], half-maximal inhibition (IC50) was put at 2.46 µM.

As to `c1ccc(N2CCN(c3nc4cc5c(cc4s3)OCO5)CC2)cc1` [6-(4-phenyl-1-piperazinyl)-[1,3]dioxolo[4,5-f][1,3]benzothiazole], the concentration for half-maximal inhibition (IC50) came out at 3.21 µM.

For `COc1cc(/N=c2/ssnc2Cl)cc(OC)c1OC` [SMR000025034], the IC50 came to 0.281 µM.

In turn, `Cc1cccc(N2CSC3=C(C#N)C(c4ccc(C)o4)CC(=O)N3C2)c1` (centres undefined) [MLS000080648] displayed an IC50 of 0.434 µM.

The compound `CC(C)Cc1cc(C(=O)Nc2sc3c(c2C#N)CCCC3)no1` [MLS000116410] returned an IC50 of 4.76 µM.

For the compound `COC(=O)c1ccccc1NC(=O)c1sc(=S)n(C)c1N` [2-[(4-amino-3-methyl-2-thioxo-4-thiazoline-5-carbonyl)amino]benzoic acid methyl ester], half-maximal inhibition (IC50) was put at 4.43 µM.

Compound `Cc1cc(C)c2c(=O)n(CC(=O)N3CCC(N4CCCCC4)CC3)sc2n1` [2-[2-keto-2-(4-piperidinopiperidino)ethyl]-4,6-dimethyl-isothiazolo[5,4-b]pyridin-3-one] came in with an IC50 of 38.4 µM.

For the compound `N#CC1C(=N)SC(=N)C(C#N)C1c1ccnc2ccccc12` (centres undefined) [2,6-bis(azanyl)-4-quinolin-4-yl-4H-thiopyran-3,5-dicarbonitrile], the IC50 was determined as 13.7 µM.

On to `COC(=O)c1ccc2c(c1)N(Cc1nc(-c3cccc(C)c3)oc1C)C(=O)C1CCCN21` (centres undefined) [4-keto-5-[[5-methyl-2-(m-tolyl)oxazol-4-yl]methyl]-1,2,3,3a-tetrahydropyrrolo[1,2-a]quinoxaline-7-carboxylic acid methyl ester], for which the IC50 worked out at 5.97 µM.

`Cc1cc(C)c(C#N)c(=N)o1` [2-azanylidene-4,6-dimethyl-pyran-3-carbonitrile] had an IC50 of 0.298 µM.

In turn, `COc1cc(-c2nnc3sc(Cc4ccc(Cl)cc4)nn23)cc(OC)c1OC` [6-(4-chlorobenzyl)-3-(3,4,5-trimethoxyphenyl)-[1,2,4]triazolo[3,4-b][1,3,4]thiadiazole] came in with an IC50 of 1.08 µM.

In turn, `O=c1c(O)c(-c2ccc(O)cc2O)oc2cc(O)cc(O)c12` [2-(2,4-dihydroxyphenyl)-3,5,7-trihydroxychromen-4-one] showed an IC50 of 2.11 µM.

For `N#Cc1c(N)nc(SCC(=O)NC2CCCCC2)c(C#N)c1-c1ccc(Cl)cc1` [2-[6-amino-4-(4-chlorophenyl)-3,5-dicyanopyridin-2-yl]sulfanyl-N-cyclohexylacetamide], it took 4.42 µM to reach half-maximal inhibition (IC50).

In turn, `CC(C)OC(=O)CSc1nnc(-c2ccc(C(C)(C)C)cc2)n1N` [2-[[4-amino-5-(4-tert-butylphenyl)-1,2,4-triazol-3-yl]thio]acetic acid isopropyl ester] yielded an IC50 above 50 µM.

`COc1ccc(N2CSC3=C(C#N)C(c4cc(OC)ccc4OC)CC(=O)N3C2)c(OC)c1` (centres undefined) [3-(2,4-dimethoxyphenyl)-8-(2,5-dimethoxyphenyl)-6-keto-2,4,7,8-tetrahydropyrido[2,1-b][1,3,5]thiadiazine-9-carbonitrile] had an IC50 of 2.9 µM.

Compound `COCCSc1ccccc1C(=O)Nc1cc(C)on1` [2-(2-methoxyethylsulfanyl)-N-(5-methyl-1,2-oxazol-3-yl)benzamide] had an IC50 of 10.8 µM.

Regarding `Cc1ccc2c(SCC(=O)NCc3ccco3)nc(-c3ccc(F)cc3)nc2c1` [2-[2-(4-Fluoro-phenyl)-7-methyl-quinazolin-4-ylsulfanyl]-N-furan-2-ylmethyl-acetamide], the IC50 worked out at 3.34 µM.

Compound `CCC(C)Sc1nc2c(c(=O)[nH]c(=O)n2C)n1CC(O)COc1cccc2ccccc12` (centres undefined) [SMR000009990] had an IC50 of 4 µM.

Take `CC1=C(SCCC#N)S/C(=C2\SC(C)=C(SCCC#N)S2)S1` [SMR000011057]: the midpoint of inhibition, the IC50, lay at 2.8 µM.

Regarding `CC(=O)C(C(C)=O)c1c(Cl)c(O)c(O)c2c(C(=O)c3ccccc3)coc12` [3-(3-benzoyl-6-chloro-4,5-dihydroxy-1-benzofuran-7-yl)pentane-2,4-dione], it took 0.384 µM to reach half-maximal inhibition (IC50).

Take `CCCCCn1c(=O)c(C(=O)NCc2ccncc2)c(O)c2ccccc21` [1-amyl-2-hydroxy-4-keto-N-(4-pyridylmethyl)quinoline-3-carboxamide]: 7.42 µM corresponded to half-maximal inhibition (IC50).

The compound `CCC1(C)Cc2c(sc3c2c(=O)n(C)c2nnc(SCc4ccc5c(c4)OCO5)n32)CO1` (centres undefined) [MLS000030507] came in with a concentration for half-maximal inhibition (IC50) of 23 µM.

Compound `CCn1c(SCC(=O)c2ccc(O)c(O)c2)nnc1-c1ccccc1OC` [1-(3,4-dihydroxyphenyl)-2-[[4-ethyl-5-(2-methoxyphenyl)-1,2,4-triazol-3-yl]sulfanyl]ethanone] gave an IC50 of 2.36 µM.

The compound `O=C(CSc1nc2sc3c(c2c(=O)n1-c1ccccc1)CCCC3)NCc1ccco1` [MLS000115858] had an IC50 of 17.2 µM.

`Cc1cc(C)c(NC(=O)Cn2c(=O)n(Cc3ccco3)c(=O)c3ccccc32)c(C)c1` [2-[3-(2-furanylmethyl)-2,4-dioxo-1-quinazolinyl]-N-(2,4,6-trimethylphenyl)acetamide] registered an IC50 of 47.8 µM.

Compound `Clc1ccccc1-c1nn2c(-c3ccncc3)nnc2s1` [6-(2-chlorophenyl)-3-(4-pyridinyl)[1,2,4]triazolo[3,4-b][1,3,4]thiadiazole] registered an IC50 of 2.7 µM.

For the compound `CC1CCc2c(sc(NC(=O)c3ccc(Cn4cc(Br)cn4)o3)c2C(N)=O)C1` (centres undefined) [2-({5-[(4-bromo-1H-pyrazol-1-yl)methyl]-2-furoyl}amino)-6-methyl-4,5,6,7-tetrahydro-1-benzothiophene-3-carboxamide], the IC50 was 3.19 µM.

`CCCc1cc(C(=O)Nc2sc3c(c2C#N)CCC3)no1` [MLS000116386]: the IC50 stood at 2.8 µM.

`CCOc1cc(C2c3c(oc4cc(C)c(Cl)cc4c3=O)C(=O)N2Cc2ccco2)ccc1O` (centres undefined) [7-chloranyl-1-(3-ethoxy-4-oxidanyl-phenyl)-2-(furan-2-ylmethyl)-6-methyl-1H-chromeno[2,3-c]pyrrole-3,9-dione]: half-maximal inhibition (IC50) was put at 6.99 µM.

For `CCOC(=O)c1c(C2COc3ccccc3O2)csc1NC(=O)c1ccco1` (centres undefined) [4-(2,3-dihydro-1,4-benzodioxin-3-yl)-2-(2-furoylamino)thiophene-3-carboxylic acid ethyl ester], the midpoint of inhibition, the IC50, lay at 0.654 µM.

In the case of `Cc1ccnc(-n2sc3ccccc3c2=O)n1` [2-(4-methyl-2-pyrimidinyl)-1,2-benzothiazol-3-one], it took 1.17 µM to reach half-maximal inhibition (IC50).

The compound `c1ccc2c(c1)nnn2Cc1nnc2sc(-c3ccncc3)nn12` [3-(1-benzotriazolylmethyl)-6-pyridin-4-yl-[1,2,4]triazolo[3,4-b][1,3,4]thiadiazole] showed an IC50 of 2.1 µM.

For `CCCc1nc2ccccc2c(=O)n1N=Cc1ccc(O)c(O)c1`, the IC50 came to 0.767 µM.

The compound `O=C1CC(c2ccco2)Cc2nc(Nc3nc(-c4ccccc4)c4ccccc4n3)ncc21` (centres undefined) [7-(2-furanyl)-2-[(4-phenyl-2-quinazolinyl)amino]-7,8-dihydro-6H-quinazolin-5-one] returned an IC50 of 13.7 µM.

For the compound `O=C1CCCC(=O)C1C(C#Cc1ccccc1)C1C(=O)CCCC1=O` [3-hydroxy-2-[1-(2-hydroxy-6-keto-cyclohexen-1-yl)-3-phenyl-prop-2-ynyl]cyclohex-2-en-1-one], it took 1.08 µM to reach half-maximal inhibition (IC50).

With `N#Cc1nc(-c2ccc(OCc3ccc(Cl)cc3)cc2)oc1NCc1cccnc1` [2-[4-(4-chlorobenzyl)oxyphenyl]-5-(3-pyridylmethylamino)oxazole-4-carbonitrile], half-maximal inhibition (IC50) required 12.9 µM.

`CCN(Cc1ccccc1)S(=O)(=O)c1ccc(C(=O)Nc2nnc(-c3ccccc3OC)o2)cc1` [4-[benzyl(ethyl)sulfamoyl]-N-[5-(2-methoxyphenyl)-1,3,4-oxadiazol-2-yl]benzamide] yielded an IC50 of 8.96 µM.

The compound `Cc1cc(C)n2c(S)nnc2n1` gave an IC50 of 8.1 µM.

As to `Cn1ccnc1P(=S)(c1nccn1C)N1CCOCC1` [MLS000054793], the midpoint of inhibition, the IC50, lay at 11.8 µM.

With `CCOc1cc(C2C(C#N)C(=N)SC(=N)C2C#N)ccc1OCCN1CCOCC1` (centres undefined) [2,6-bis(azanyl)-4-[3-ethoxy-4-(2-morpholin-4-ylethoxy)phenyl]-4H-thiopyran-3,5-dicarbonitrile], the IC50 is 31.5 µM.

Consider `Cc1ccccc1NC(=O)CSc1nc2c(c(-c3ccco3)c1C#N)CCCC2` [2-[[3-cyano-4-(2-furanyl)-5,6,7,8-tetrahydroquinolin-2-yl]thio]-N-(2-methylphenyl)acetamide], for which half-maximal inhibition (IC50) was put at 5.23 µM.

Regarding `COC(=O)c1oc2ccc(Br)cc2c1NC(=O)c1ccccc1` [3-benzamido-5-bromo-2-benzofurancarboxylic acid methyl ester], 0.989 µM corresponded to half-maximal inhibition (IC50).

Values taken from BindingDB's records for doi:10.7270/Q2H70D5W (University of Pittsburgh, 2007).
